Assay results taken from patent US9206103B2, “Materials and methods for reduction of protein tau and treatment of neurodegenerative diseases” (UNIVERSITY OF SOUTH FLORIDA, priority 2010, dated 2015).

Key:
[1] = tested on: tau; experiment: Western blot of tau levels in HeLa cells stably overexpressing tau (HeLa-C3); assay type: cell-based; conditions: for tau levels, effect of chirality: HeLa-C3, similar concentrations of enriched and racemic myricanol
Experimental: (§1) HeLa cells stably expressing VS-tagged 4R0N tau were maintained under G418 selection in Opti-Mem plus 10% FBS (complete media; Invitrogen) as previously described (Jinwal et al. (2009) J Neurosci 29, 12079-12088). IMR32 cells were maintained in Opti-mem plus 10% FBS and 2% 200 mM L-glutamine (Cellgro, Mediatech, Inc, Herndon, Va.). IMR32, M17, and H4 cells were maintained in Opti-mem plus 10% FBS and 2% 200 mM L-glutamine (Cellgro, Mediatech, Inc., Herndon, Va.). All cells were treated as indicated and harvested as previously described (Jinwal et al. (2009) J Neurosci 29, 12079-12088).
(§2) Protein levels were determined by using the Peirce BCA kit. Western blotting was performed by running SDS-PAGE, followed by transfer onto Immobilon-P (Millipore), as previously described (Dickey et al. (2005) Curr Alzheimer Res 2, 231-23; Koren et al. (2010) J. Bio. Chem. 285, 2498-2505).
(§3) To assess the effects of the aqueous bayberry extract on overexpressed and endogenous tau levels, a HeLa cell line stably transfected with tau (HeLa-C3) and a human IMR32 cell line derived from hippocampal neurons were treated with the bayberry extract at indicated doses for four hours. The hippocampus is the region first affected by tau deposition in Alzheimer's disease.
Briefly, the EtOH extract was subjected to acid hydrolysis to enrich the aglycone component of the extract, and was then fractionated via medium pressure liquid chromatography (MPLC). The bayberry crude extract was separated into 8 UV-active fractions by MPLC) (FIG. 4A). The MPLC extraction method was designed to identify UV active flavonoids such as myricetin).
To investigate the effect of chirality on anti-tau activity, HaLa-C3 cells were treated with the isolated (+)-αR,11S-myricanol (86% ee) and commercially available “racemic” myricanol (actually 9% ee) at the indicated concentrations.

[2] = tested on: tau; experiment: Western blot of endogenous tau levels in IMR32 cells; assay type: cell-based, human; conditions: IMR32 hippocampus-derived cells
Experimental: as §1, §2, §3

[3] = tested on: tau; experiment: Ex-vivo murine brain slice cultures, Western blot of tau levels; assay type: cell-based, mice; conditions: murine brain slices
Experimental: HeLa cells stably overexpressing tau (HeLa-C3; FIG. 2A) and IMR32 cells with endogenous tau levels (FIG. 2B) were treated for 4 hrs with aqueous bayberry extract at 0, 21, 35, 70 μg/ml (0, 0.3, 0.5, and 1.0% by volume). […] Tau levels are shown as a percentage of vehicle-treated cells ±SD. […] Treatments on whole brain murine slice cultures were performed in duplicate at doses of 0, 9, 18, 35, 70, 105, 140 μg/ml (0, 0.125, 0.25, 0.5, 1.0, and 2.0% by volume) of the bayberry extract. Each point in the graph (FIG. 2E) to the right represents the average tau reductions (n=8 slices) for all four mice at the given doses relative to the average vehicle ±SD. *p<0.05 by student's t test.
4 non-transgenic 5-month-old mice were decapitated and their brains were quickly removed. 400 μm coronal sections were made using a vibratome as previously described (Jinwal et al. J. Neurosci. 2009, 29, 12079-12088; Qiu et al. J. Neurosci. 2006, 26, 12943-12955; Mirnikjoo et al. J. Biol. Chem. 2001, 276, 10888-10896. NP100572Z). […]

[4] = tested on: Hsp70 ATPase; conditions: previously shown; cited from earlier work
[5] = Lactate dehydrogenase release assay for myricanol; assay type: cell-based

## COc1c2cc(c(O)c1OC)CCCC[C@H](O)CCc1ccc(O)c-2c1 [(+)-αR,11S-myricanol]
[1]; HeLa-C3, Western blot, read-out: EC50 for reduction of tau levels
  EC50: 35 µM
[1]; HeLa-C3, overexpressed tau
  reduction of tau levels: potently reduced tau levels
[1]
  tau levels, effect of chirality: reduced significantly
[2]
  reduction of tau levels: potently reduced tau levels
[3]
  reduction of tau levels: potently reduced tau levels

## O=c1c(O)c(-c2cc(O)c(O)c(O)c2)oc2cc(O)cc(O)c12 [myricetin]
[4]
  inhibition of Hsp70 ATPase activity: inhibitor of Hsp70 ATPase activity

## COc1c2cc(c(O)c1OC)CCCC[C@@H](O)CCc1ccc(O)c-2c1 [myricanol]
[1]; HeLa-C3, NH4Cl 20 mM pre-treatment
  tau reduction after pre-treatment with autophagy inhibitor: abrogated tau reductions
[1]; HeLa-C3, epoxomicin 0.3 μM pre-treatment
  tau reduction after pre-treatment with proteasomal inhibitor: abrogated tau reductions
[1]; comparison stated in the description
  reduction of intracellular tau levels compared with myricetin: more effectively reduces intracellular tau levels than myricetin
[5]
  toxicity by lactate dehydrogenase release: little toxicity

## COc1c2cc(c(O)c1OC)CCCC[C@@H](O)CCc1ccc(O)c-2c1 (racemic) [(+/−)-myricanol, reference compound]
[1]
  tau levels, effect of chirality: no activity
